The source of these data is ChEMBL document CHEMBL3774323, “Stimulation of cortical bone formation with thienopyrimidine based inhibitors of Notum Pectinacetylesterase” (Bioorg Med Chem Lett, 2016).

The nature of data set [1]: Inhibition of human/mouse notum pectinacetylesterase using OPTS as substrate by fluorimetric assay.
Data set [2] concerns the target T1, Palmitoleoyl-protein carboxylesterase NOTUM (Mus musculus, UniProt Q8R116).
T1 sequence (Q8R116 whole entry): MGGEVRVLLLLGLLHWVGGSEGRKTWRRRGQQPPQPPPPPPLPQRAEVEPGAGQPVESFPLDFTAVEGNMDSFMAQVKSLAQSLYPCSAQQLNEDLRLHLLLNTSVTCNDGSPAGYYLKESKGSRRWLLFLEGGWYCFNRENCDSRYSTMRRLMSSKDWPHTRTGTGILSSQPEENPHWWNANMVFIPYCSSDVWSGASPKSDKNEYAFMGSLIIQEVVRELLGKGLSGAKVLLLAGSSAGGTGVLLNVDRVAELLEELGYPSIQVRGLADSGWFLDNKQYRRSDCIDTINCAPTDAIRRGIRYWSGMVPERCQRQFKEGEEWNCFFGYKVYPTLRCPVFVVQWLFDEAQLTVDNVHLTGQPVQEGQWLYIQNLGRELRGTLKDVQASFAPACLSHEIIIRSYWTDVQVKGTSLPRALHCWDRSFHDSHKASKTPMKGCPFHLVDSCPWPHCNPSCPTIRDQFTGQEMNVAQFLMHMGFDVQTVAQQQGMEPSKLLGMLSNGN
Nature of the data set: Inhibition of mouse notum pectinacetylesterase expressed in 293F cells after 30 mins by TCF/LEF cell sensor assay. The data set is classed as cell-based.

The target in data set [3] is T2, Palmitoleoyl-protein carboxylesterase NOTUM (Homo sapiens, UniProt Q6P988).
T2 sequence (Q6P988 whole entry): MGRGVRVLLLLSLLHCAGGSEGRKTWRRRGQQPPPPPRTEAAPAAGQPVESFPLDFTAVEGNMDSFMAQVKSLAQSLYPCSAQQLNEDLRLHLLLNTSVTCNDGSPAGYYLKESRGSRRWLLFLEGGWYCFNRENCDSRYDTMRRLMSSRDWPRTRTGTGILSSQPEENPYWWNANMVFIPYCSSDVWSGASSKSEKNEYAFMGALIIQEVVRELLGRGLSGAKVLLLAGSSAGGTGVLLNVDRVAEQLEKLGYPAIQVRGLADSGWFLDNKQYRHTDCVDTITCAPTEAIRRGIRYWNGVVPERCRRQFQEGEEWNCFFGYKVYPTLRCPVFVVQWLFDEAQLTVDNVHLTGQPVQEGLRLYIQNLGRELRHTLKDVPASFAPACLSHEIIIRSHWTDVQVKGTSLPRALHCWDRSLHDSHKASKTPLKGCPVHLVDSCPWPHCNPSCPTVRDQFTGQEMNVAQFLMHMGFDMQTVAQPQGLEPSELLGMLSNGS
Nature of the data set: Inhibition of human notum pectinacetylesterase expressed in 293F cells after 30 mins by TCF/LEF cell sensor assay. The data set is classed as cell-based.

A short description of data set [4]: Oral bioavailability in mouse at 10 mg/kg. The data set is classed as ADME, organism-based. The conditions noted are these: in vivo.
The nature of data set [5]: Cmax in mouse at 10 mg/kg, po. The data set is classed as ADME, organism-based. More on the design: dose 10 mg/kg, route oral. The settings on record: in vivo.
Data set [6] in a line: Clearance in mouse at 10 mg/kg, po. In kind it is ADME, organism-based. The settings on record: in vivo.
The test system of a further data set is Mus musculus. The data set is described as follows: Volume of distribution at steady state in mouse at 10 mg/kg, po. In kind it is ADME, organism-based. The settings on record: in vivo.
Data set [7] can be described thus: AUC in mouse at 10 mg/kg, po. The data set is classed as ADME, organism-based. The settings on record: in vivo.

`O=C(O)CSc1ncnc2sc3c(c12)CCCC3` had an IC50 in data set [1] of 0.62 µM. This lies in the sub-micromolar range.

In the case of `Cc1sc2ncnc(SCC(=O)O)c2c1C`, the concentration for half-maximal inhibition (IC50) in data set [1] was 0.002 µM. In data set [2], this compound came in with a 50% effective concentration (EC50) of 1.02 µM.

Compound `Cc1cc2c(SCC(=O)O)ncnc2s1` registered an IC50 in data set [1] of 0.152 µM.

`Cc1c(Br)sc2ncnc(SCC(=O)O)c12`: the figures for the EC50 in data set [2] and in data set [3] were 0.485 µM and 0.144 µM, respectively.

In data set [1], `Cc1csc2ncnc(SCC(=O)O)c12` gave a half-maximal inhibitory concentration (IC50) of 0.092 µM.

`Cc1sc2c(SCC(=O)O)ncnc2c1Cl`: the EC50 in data set [2] came out at 5.51 µM; in data set [3], 1.96 µM.

The compound `Cc1sc2ncnc(SCC(=O)O)c2c1Cl` had a bioavailability in data set [4] of 95%. Besides, the maximum concentration (Cmax) in data set [5] turned out to be 157 µM. Further, the apparent clearance (CL/F) in data set [6] came out at 1.22 mL/min/kg. The EC50 worked out at 0.409 µM in data set [2] and 0.107 µM in data set [3]. In the data set on Mus musculus, this compound yielded a Vdss of 0.16 L/kg. The AUC in data set [7] was determined as 515 µM·h.

For `Cc1csc2c(SCC(=O)O)ncnc12`, in data set [1], the 50% inhibitory concentration (IC50) was 0.193 µM.

Turning to `Cc1sc2ncnc(SCC(=O)NC#N)c2c1C`, half-maximal inhibition in data set [1] (IC50) was put at 0.002 µM. Further, in data set [3], the midpoint of the response, the EC50, lay at 0.4 µM.

Regarding `O=C(O)CSc1ncnc2ccccc12`, the midpoint of inhibition in data set [1], the IC50, lay at 1.2 µM. In other words, the single-digit micromolar range.

In the case of `Cc1sc2c(SCC(=O)O)ncnc2c1C`, the EC50 in data set [2] was determined as 4.47 µM; in data set [3] it was 0.881 µM.

Turning to `CCc1c(C)sc2ncnc(SCC(=O)O)c12`, the half-maximal effective concentration (EC50) in data set [2] is 65.4 µM; in data set [3] it was 21.9 µM.

Take `O=C(O)CSc1ncnc2c(C3CC3)c(Cl)sc12`: the half-maximal effective concentration (EC50) in data set [2] came out at 0.055 µM. This compound yielded a Vdss in the data set on Mus musculus of 0.13 L/kg.

In the case of `Cc1c(Cl)sc2ncnc(SCC(=O)O)c12`, the EC50 stood at 2.56 µM in data set [2] and 0.885 µM in data set [3].

On to `CNC(=O)CSc1ncnc2sc(C)c(C)c12`, for which the concentration for half-maximal inhibition (IC50) in data set [1] was 0.027 µM. In data set [3], this compound registered an EC50 of 0.789 µM.

For the compound `O=C(O)CSc1ncnc2c(C3CC3)c(C(F)(F)F)sc12`, the EC50 stood at 0.043 µM in data set [2] and 0.012 µM in data set [3].

Compound `Cc1sc2ncnc(SCC(N)=O)c2c1C` had an IC50 in data set [1] of 0.002 µM. In addition, a half-maximal effect in data set [3] (EC50) was put at 0.857 µM.

In turn, `Cc1sc2ncnc(SCC(=O)c3ccc(CNC(=O)C(C)C)o3)c2c1C` showed an IC50 in data set [1] of 0.006 µM. Further, the half-maximal effective concentration (EC50) in data set [3] was found to be 0.211 µM.

On to `O=C(O)CSc1ncnc2[nH]ncc12`, for which, in data set [1], the IC50 was 15 µM.

As for `Cc1sc2ncnc(SCC(=O)c3c[nH]c(C(=O)N4CCCC4)c3)c2c1C`, the IC50 in data set [1] was determined as 0.01 µM. In addition, in data set [3], the EC50 stood at 0.28 µM.

On to `CCCc1sc2ncnc(SCC(=O)O)c2c1Cl`, for which the half-maximal effective concentration (EC50) in data set [2] is 0.342 µM; in data set [3], 0.088 µM.

As for `Cc1sc2ncnc(SCC(=O)c3c[nH]c(CNS(=O)(=O)C4CC4)c3)c2c1C`, the IC50 in data set [1] is 0.002 µM. In data set [3], this compound returned a concentration for a half-maximal effect (EC50) of 0.168 µM.

`Cc1sc2ncnc(SCC(=O)NS(C)(=O)=O)c2c1C` had an IC50 in data set [1] of 0.011 µM. The compound also showed an EC50 in data set [3] of 1.46 µM.

In the case of `Cc1c(Cl)sc2c(SCC(=O)O)ncnc12`, the figures for the EC50 in data set [2] and in data set [3] were 1.44 µM and 0.435 µM, respectively.

With `CCc1sc2ncnc(SCC(=O)O)c2c1Cl`, the EC50 is 1.44 µM in data set [2] and 0.393 µM in data set [3].

Consider `Cc1sc2c(SCC(=O)O)ncnc2c1C1CC1`, for which the EC50 in data set [2] was determined as 0.408 µM; in data set [3], 0.115 µM.

For `Cc1c(Br)sc2c(SCC(=O)O)ncnc12`, the 50% effective concentration (EC50) in data set [2] amounted to 1.36 µM; in data set [3], 0.417 µM.

On to `O=C(O)CSc1ncnc2[nH]ccc12`, for which the half-maximal inhibitory concentration (IC50) in data set [1] came out at 15 µM.

In turn, `Cc1sc2ncnc(SCC(=O)NO)c2c1C` had a 50% inhibitory concentration (IC50) in data set [1] of 0.002 µM. In data set [3], this compound registered an EC50 of 0.556 µM.

Turning to `Cc1sc2ncnc(SCC(=O)O)c2c1Br`, the figures for the EC50 in data set [2] and in data set [3] were 0.375 µM and 0.208 µM, respectively.

The compound `O=C(O)CSc1ncnc2scnc12` showed an IC50 in data set [1] of 15 µM.

For `CCc1sc2ncnc(SCC(=O)O)c2c1C`, the 50% effective concentration (EC50) was determined as 2.64 µM in data set [2] and 0.835 µM in data set [3].

For `Cc1sc2ncnc(SCC(=O)c3ccc(CNC(=O)C4CC4)o3)c2c1C`, in data set [1], the 50% inhibitory concentration (IC50) stood at 0.005 µM. Also, it took 0.249 µM to reach a half-maximal effect in data set [3] (EC50).

In the case of `CC(C)c1sc2ncnc(SCC(=O)O)c2c1Cl`, the values for the EC50 in data set [2] and in data set [3] were 0.828 µM and 0.477 µM, respectively.

`COC(=O)CSc1ncnc2sc(C)c(C)c12` returned an IC50 in data set [1] of 0.002 µM. The compound further displayed an EC50 in data set [3] of 0.445 µM.

With `O=C(O)CSc1ncnc2sc(C3CC3)c(Cl)c12`, the EC50 is 1.01 µM in data set [2] and 0.25 µM in data set [3].

Consider `O=C(O)CSc1ncnc2sccc12`, for which half-maximal inhibition in data set [1] (IC50) was put at 2.8 µM.
